Experimental findings from ChEMBL document CHEMBL5728460, “Pyrimidine compounds and pyrimido indole compounds and methods of use” (2021) are described below.

One assay has as its target T1, Dihydrofolate reductase (Homo sapiens, UniProt P00374).
T1 sequence (P00374 whole entry): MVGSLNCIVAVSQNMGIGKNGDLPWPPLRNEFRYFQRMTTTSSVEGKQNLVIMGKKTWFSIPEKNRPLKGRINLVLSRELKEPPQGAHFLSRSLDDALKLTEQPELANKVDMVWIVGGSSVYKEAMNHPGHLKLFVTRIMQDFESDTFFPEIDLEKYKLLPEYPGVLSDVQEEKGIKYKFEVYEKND
As to the kind of experiment: TBD: TBD.

Assay [1] addresses Epidermal growth factor receptor (Homo sapiens, UniProt P00533). The experiment in a line: TBD: TBD.
Assay [2] concerns the target Platelet-derived growth factor receptor beta (Homo sapiens, UniProt P09619). The experiment in a line: TBD: TBD.
For assay [3], the target named is Vascular endothelial growth factor receptor 1 (Homo sapiens, UniProt P17948). The experiment in a line: TBD: TBD.
Assay [4] has as its target Vascular endothelial growth factor receptor 2 (Homo sapiens, UniProt P35968). As to the kind of experiment: TBD: TBD.
The nature of assay [5]: TBD: TBD.

Sequence of Epidermal growth factor receptor (P00533 whole entry): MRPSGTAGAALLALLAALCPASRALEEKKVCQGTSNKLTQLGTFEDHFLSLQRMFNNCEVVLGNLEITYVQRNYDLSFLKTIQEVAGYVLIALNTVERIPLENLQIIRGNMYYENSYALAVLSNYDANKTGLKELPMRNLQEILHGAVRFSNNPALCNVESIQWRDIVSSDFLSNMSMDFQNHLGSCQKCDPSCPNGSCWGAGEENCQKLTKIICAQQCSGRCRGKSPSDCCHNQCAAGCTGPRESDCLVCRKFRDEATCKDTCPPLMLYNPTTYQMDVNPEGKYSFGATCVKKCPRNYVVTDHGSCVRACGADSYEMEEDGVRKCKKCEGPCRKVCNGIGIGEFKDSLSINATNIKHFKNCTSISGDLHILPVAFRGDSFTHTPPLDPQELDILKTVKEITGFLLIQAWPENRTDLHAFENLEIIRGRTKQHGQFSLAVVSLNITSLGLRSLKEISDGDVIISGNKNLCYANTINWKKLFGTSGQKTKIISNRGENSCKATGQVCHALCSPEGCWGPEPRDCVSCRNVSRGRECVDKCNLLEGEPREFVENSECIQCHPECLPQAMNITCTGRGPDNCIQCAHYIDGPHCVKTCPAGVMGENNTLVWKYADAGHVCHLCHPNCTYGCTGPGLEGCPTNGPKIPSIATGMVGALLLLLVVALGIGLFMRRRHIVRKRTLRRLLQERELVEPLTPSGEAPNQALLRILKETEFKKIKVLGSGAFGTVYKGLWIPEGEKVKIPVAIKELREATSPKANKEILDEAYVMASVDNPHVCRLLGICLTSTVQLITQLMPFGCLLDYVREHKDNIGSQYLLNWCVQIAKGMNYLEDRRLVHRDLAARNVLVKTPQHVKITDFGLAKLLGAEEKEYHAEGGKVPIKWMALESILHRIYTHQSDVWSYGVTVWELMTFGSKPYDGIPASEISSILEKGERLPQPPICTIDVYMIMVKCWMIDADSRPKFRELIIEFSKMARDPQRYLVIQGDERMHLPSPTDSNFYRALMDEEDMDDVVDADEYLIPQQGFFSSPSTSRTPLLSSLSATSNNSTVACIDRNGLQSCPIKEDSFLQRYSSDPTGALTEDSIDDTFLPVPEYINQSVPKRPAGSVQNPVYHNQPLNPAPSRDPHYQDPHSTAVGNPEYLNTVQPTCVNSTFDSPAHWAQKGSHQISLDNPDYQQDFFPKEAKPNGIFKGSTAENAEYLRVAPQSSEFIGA
Sequence of Vascular endothelial growth factor receptor 1 (P17948 whole entry): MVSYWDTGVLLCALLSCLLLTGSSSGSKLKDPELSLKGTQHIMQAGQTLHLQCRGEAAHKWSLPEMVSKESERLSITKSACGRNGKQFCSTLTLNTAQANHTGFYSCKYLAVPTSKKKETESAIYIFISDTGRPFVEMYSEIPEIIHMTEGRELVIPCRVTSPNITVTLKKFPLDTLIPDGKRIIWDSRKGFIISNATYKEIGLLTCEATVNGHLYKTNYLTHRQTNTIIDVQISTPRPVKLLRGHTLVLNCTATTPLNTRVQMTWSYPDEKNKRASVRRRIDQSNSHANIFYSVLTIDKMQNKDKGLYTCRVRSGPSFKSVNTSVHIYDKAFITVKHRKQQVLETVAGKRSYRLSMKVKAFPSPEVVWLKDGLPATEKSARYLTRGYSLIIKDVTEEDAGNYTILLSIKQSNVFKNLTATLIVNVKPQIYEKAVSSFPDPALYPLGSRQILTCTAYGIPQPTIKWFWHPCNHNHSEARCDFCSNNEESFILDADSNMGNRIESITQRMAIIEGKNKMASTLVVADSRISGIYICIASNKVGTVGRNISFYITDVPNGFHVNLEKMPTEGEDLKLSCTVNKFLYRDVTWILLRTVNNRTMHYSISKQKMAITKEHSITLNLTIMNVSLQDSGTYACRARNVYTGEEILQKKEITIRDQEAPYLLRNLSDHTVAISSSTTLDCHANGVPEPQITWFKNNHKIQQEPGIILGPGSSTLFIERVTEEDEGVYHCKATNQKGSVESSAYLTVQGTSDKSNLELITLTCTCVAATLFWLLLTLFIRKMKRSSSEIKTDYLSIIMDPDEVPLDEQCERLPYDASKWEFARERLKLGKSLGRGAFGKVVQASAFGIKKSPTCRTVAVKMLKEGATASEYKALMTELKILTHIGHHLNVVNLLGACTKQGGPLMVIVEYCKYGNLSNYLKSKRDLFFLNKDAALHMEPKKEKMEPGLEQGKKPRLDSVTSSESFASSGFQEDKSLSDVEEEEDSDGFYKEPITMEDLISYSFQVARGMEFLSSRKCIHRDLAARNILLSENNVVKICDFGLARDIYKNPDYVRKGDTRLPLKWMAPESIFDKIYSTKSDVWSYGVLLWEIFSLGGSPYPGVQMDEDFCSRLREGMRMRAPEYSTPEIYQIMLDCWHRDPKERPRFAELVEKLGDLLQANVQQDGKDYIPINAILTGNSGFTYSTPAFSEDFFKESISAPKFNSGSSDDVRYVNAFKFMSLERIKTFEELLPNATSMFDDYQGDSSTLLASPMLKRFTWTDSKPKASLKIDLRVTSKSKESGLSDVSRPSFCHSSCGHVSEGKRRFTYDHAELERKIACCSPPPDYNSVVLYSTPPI
Sequence of Vascular endothelial growth factor receptor 2 (P35968 whole entry): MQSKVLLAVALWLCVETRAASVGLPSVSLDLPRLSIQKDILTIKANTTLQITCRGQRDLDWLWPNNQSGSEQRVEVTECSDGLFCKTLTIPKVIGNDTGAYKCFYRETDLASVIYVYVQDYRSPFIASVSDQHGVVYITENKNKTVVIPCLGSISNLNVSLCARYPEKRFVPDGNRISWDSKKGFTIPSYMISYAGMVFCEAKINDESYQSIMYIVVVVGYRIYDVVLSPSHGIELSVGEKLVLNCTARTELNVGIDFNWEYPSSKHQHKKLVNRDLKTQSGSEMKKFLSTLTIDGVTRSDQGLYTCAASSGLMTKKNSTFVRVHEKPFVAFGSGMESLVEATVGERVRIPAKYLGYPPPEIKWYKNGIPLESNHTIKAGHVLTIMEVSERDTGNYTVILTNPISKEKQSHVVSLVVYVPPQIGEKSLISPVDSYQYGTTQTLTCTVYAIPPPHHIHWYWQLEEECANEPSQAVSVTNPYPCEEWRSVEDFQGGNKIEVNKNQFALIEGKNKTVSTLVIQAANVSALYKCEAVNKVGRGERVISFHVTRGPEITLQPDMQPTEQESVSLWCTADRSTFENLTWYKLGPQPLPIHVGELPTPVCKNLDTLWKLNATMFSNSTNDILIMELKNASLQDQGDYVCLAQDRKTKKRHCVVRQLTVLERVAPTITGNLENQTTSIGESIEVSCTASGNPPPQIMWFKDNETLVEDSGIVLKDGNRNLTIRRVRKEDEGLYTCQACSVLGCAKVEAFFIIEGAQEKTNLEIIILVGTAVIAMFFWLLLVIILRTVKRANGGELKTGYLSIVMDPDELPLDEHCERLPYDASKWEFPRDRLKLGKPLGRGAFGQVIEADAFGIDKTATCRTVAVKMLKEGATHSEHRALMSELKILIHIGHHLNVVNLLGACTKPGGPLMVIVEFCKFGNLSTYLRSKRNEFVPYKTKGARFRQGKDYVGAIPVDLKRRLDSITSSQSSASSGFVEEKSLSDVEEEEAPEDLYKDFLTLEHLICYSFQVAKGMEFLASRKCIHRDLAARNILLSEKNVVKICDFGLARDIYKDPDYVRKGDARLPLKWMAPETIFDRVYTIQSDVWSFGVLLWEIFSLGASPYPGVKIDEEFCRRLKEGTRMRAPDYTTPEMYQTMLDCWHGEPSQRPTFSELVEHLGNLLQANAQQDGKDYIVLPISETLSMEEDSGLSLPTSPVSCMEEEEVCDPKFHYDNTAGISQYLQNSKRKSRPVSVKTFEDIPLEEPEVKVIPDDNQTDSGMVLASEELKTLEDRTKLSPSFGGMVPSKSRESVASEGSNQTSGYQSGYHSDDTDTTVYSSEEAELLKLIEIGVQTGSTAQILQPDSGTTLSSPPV
Sequence of Platelet-derived growth factor receptor beta (P09619 whole entry): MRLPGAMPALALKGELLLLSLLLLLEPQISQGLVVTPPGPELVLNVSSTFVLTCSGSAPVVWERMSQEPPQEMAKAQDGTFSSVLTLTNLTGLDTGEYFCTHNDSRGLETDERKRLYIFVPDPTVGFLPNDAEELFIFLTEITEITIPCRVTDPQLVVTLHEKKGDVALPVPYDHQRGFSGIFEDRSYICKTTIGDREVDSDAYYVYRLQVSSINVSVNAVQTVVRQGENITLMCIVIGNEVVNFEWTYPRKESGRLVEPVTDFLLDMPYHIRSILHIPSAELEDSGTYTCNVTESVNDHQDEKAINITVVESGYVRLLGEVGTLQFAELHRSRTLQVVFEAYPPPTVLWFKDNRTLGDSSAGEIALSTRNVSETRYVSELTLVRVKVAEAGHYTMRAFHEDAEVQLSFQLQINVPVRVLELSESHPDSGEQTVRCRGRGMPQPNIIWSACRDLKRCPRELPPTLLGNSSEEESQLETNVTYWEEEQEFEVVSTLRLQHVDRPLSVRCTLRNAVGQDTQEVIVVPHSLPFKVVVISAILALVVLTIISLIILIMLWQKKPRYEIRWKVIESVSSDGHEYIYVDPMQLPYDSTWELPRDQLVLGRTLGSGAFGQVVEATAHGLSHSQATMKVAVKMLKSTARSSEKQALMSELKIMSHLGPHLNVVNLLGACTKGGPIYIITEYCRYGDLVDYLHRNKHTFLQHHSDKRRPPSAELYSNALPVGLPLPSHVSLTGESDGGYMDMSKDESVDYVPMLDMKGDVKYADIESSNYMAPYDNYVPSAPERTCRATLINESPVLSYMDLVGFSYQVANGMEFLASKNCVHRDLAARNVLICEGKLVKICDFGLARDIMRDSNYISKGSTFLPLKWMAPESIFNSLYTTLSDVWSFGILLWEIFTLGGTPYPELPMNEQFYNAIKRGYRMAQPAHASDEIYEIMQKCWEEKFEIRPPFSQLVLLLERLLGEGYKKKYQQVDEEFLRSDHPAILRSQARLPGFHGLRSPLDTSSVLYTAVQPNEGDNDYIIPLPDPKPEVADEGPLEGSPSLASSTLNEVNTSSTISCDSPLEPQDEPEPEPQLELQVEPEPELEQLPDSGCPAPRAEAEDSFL

On Dihydrofolate reductase, `COc1ccc(Sc2sc3nc(N)nc(N)c3c2C)cc1` gave an IC50 of 1.41 µM. This lies in the single-digit micromolar range.
Consider `COc1ccccc1Sc1sc2nc(N)nc(N)c2c1C`, for which the IC50 in assay [1] turned out to be 10.4 µM; in assay [2], 40.3 µM; in assay [3], 160 µM; in assay [4], 56.3 µM.
Regarding `COc1ccc(Sc2sc3nc(N)nc(N)c3c2C)cc1OC`, the IC50 in assay [5] is 3.9 µM; against Dihydrofolate reductase, 0.91 µM; in assay [1], 15.1 µM.
In the case of `COc1cc(C[C@H]2NCCc3cc(O)c(O)cc32)cc(OC)c1OC`, the IC50 in assay [5] is 0.0021 µM.
With `COc1ccc(Sc2c(C)c3c(N)nc(N)nc3n2C)cc1OC`, the midpoint of inhibition against Dihydrofolate reductase, the IC50, lay at 1.1 µM. In other words, the single-digit micromolar range.

A word on the IC50: it is the concentration at which inhibition is half-maximal. A lower IC50 goes with greater potency.
